Assay [1] concerns caspase-3 activation in Jurkat cells co-cultured with SW620 cells. Description: Caspase-3 like (DEVDase) activity in Jurkat cells co-cultured with SW620 cells. It is filed as cell-based, human. The settings on record: for Jurkat cell (lymphocyte) apoptosis induced by co-culture with SW620 cells: summary statement, co-culture with Fas ligand-expressing SW620 colon cancer cells; for caspase-3 activation in Jurkat cells: 24 h co-culture with SW620. Here is the method: (§1) Jurkat T-lymphoma (clone E6-1) and SW620 colon adenocarcinoma cells were purchased and cultured according to the guidelines of American Type Culture Collection (ATCC, Manassas, Va.). SW620 cells grow as adherent monolayers, whereas Jurkat cells grow in suspension. Jurkat cells were co-cultured with SW620 cells by exchanging the culture medium of SW620 cells (80 percent confluent in a 10 cm dish) with 10 ml Jurkat medium containing 1×10^6 Jurkat cells. Co-cultures were incubated for 24 h, after which cell death or caspase activity was determined in Jurkat cells. Pre-loading 1,2-bis(o-aminophenoxy)ethane-N,N,N′,N′-tetraacetic acid (BAPTA) or B-IP3RCYT into Jurkat cells was performed for 30 min at room temperature. Free BAPTA-AM or B-IP3RCYT was removed by media exchange prior to addition to SW620 cells. XestC was similarly pre-incubated with Jurkat cells prior to co-culturing, and remained in the culture medium for the duration of the co-culture experiment.
Caspase activity and cell death were determined specifically in Jurkat cells by removing the medium containing the Jurkat cells into a fresh tube. An additional rinse with culture medium was used to fully recover the Jurkat cells. Adherent SW620 cells remained attached to the culture plate after this rinse as determined by light microscopy. Jurkat cells were pelleted by centrifugation at 1000 g and cell death was determined by propidium iodide staining as described (12). Fluorometric determination of DEVDase (caspase-3 like) activity was performed on lysates prepared from Jurkat cells as described (12, 15).

Assay [2] has as its system Jurkat cells co-cultured with SW620 cells. In words: Jurkat cell death by propidium iodide staining after co-culture with SW620 cells. It counts as cell-based, human. Also noted: dose or concentration left out as unconfirmed. The settings on record: XestC pre-incubation, 24 h co-culture. The method, then:
as §1
Caspase activity and cell death were determined specifically in Jurkat cells by removing the medium containing the Jurkat cells into a fresh tube. […] Adherent SW620 cells remained attached to the culture plate after this rinse as determined by light microscopy. Jurkat cells were pelleted by centrifugation at 1000 g and cell death was determined by propidium iodide staining as described (12). […]

We go through three compounds from patent US20090325874A1, “Inhibition of inositol 1,4,5-triphosphate receptor calcium channel/cytochrome c interactions and uses thereof” (priority 2008, published 2009).

Molecules are shown by their SMILES.

For `O=C(O)CN(CC(=O)O)c1ccccc1OCCOc1ccccc1N(CC(=O)O)CC(=O)O` [BAPTA, 1,2-bis(o-aminophenoxy)ethane-N,N,N′,N′-tetraacetic acid], the “Jurkat cell (lymphocyte) apoptosis induced by co-culture with SW620 cells” value in assay [1] is “dose-dependently inhibited Jurkat cell apoptosis”.
As for `CC(=O)OCOC(=O)CN(CC(=O)OCOC(C)=O)c1ccccc1OCCOc1ccccc1N(CC(=O)OCOC(C)=O)CC(=O)OCOC(C)=O` [BAPTA-AM, aminomethoxy ester form of BAPTA (1,2-bis(o-aminophenoxy)ethane-N,N,N′,N′-tetraacetic acid], the “caspase-3 activation in Jurkat cells” value in assay [1] (100 and 500 nM BAPTA-AM pre-loaded 30 min, p<0.05 vs no pre-treatment) is given as “Significant attenuation of caspase-3 activation”.
In the case of `C1CCC[C@H]2CCCN3CC[C@@H](CCCCCC[C@@H]4CCCN5CC[C@@H](CC1)O[C@@H]45)O[C@@H]23` [XestC, Xestospongin C], in assay [1] (XestC 1 to 20 micromolar, pre-incubated and kept in medium), the “caspase-3 activation in Jurkat cells” value is listed as “inhibited caspase-3 activation”. The “Jurkat cell (lymphocyte) apoptosis induced by co-culture with SW620 cells” value in assay [1] is recorded as “dose-dependently inhibited Jurkat cell apoptosis”. Besides, the “Jurkat cell death induced by co-culture with SW620 cells” value in assay [2] is reported as “potently blocked Jurkat cell death”.
